From ChEMBL document CHEMBL1152734, “Novel E. coli beta-ketoacyl-acyl carrier protein synthase III inhibitors as targeted antibiotics” (Bioorg Med Chem, 2009)
≈ marks a conversion by molar mass, not a printed value. Calls of active or inactive are those of the source. No cut-off for these calls is given here.

Legend:
Escherichia coli K-12 = assay: Binding affinity to Escherichia coli K12 KAS 3 expressed in Escherichia coli BL21 by STD-NMR spectroscopy
Staphylococcus aureus [1] = assay: Antimicrobial activity against Staphylococcus aureus KCTC 1621 after 20 hrs by twofold serial broth dilution method; type: functional; details: KCTC 1621, 20 h
Klebsiella pneumoniae = assay: Antimicrobial activity against Klebsiella pneumoniae KCTC 2242 after 20 hrs by twofold serial broth dilution method; type: functional; details: KCTC 2242, 20 h
Staphylococcus aureus [2] = assay: Antimicrobial activity against methicillin-resistant Staphylococcus aureus CCARM 3114 after 20 hrs by twofold serial broth dilution method; type: functional; details: CCARM 3114, 20 h
[3] = target: T1, Beta-ketoacyl-[acyl-carrier-protein] synthase III (Escherichia coli K-12, UniProt P0A6R0); assay: Binding affinity to Escherichia coli K12 KAS 3 expressed in Escherichia coli BL21 by fluorescence quenching analysis
T1 sequence (P0A6R0 whole entry): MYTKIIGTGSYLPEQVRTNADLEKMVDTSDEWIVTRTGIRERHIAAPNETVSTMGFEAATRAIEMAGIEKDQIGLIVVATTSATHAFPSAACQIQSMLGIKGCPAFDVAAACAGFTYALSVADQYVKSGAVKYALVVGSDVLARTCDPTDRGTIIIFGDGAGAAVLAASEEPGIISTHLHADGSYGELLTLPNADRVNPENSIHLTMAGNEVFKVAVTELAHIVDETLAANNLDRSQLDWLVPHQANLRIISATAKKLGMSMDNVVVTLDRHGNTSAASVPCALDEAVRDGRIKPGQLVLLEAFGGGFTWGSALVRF

Escherichia coli = assay: Antimicrobial activity against Escherichia coli KCTC 1682 after 20 hrs by twofold serial broth dilution method; type: functional; details: KCTC 1682, 20 h
Enterococcus faecalis = assay: Antimicrobial activity against Enterococcus faecalis KCTC 2011 after 20 hrs by twofold serial broth dilution method; type: functional; details: KCTC 2011, 20 h

Oc1ccc(/C=N/C2CCCCC2)c(O)c1
Activity (Escherichia coli K-12): Active
MIC (Staphylococcus aureus [1]): 256 µg/mL (≈ 1170 µM)
MIC (Klebsiella pneumoniae): 256 µg/mL (≈ 1170 µM)
MIC (Staphylococcus aureus [2]): 128 µg/mL (≈ 584 µM)
Kd [3]: 0.02 µM
MIC (Escherichia coli): 128 µg/mL (≈ 584 µM)
MIC (Enterococcus faecalis): 256 µg/mL (≈ 1170 µM)

COc1ccc2c(c1)CCC/C2=N/Nc1nc(C(=O)NN)cs1
Activity (Escherichia coli K-12): inactive

C=C/C(C)=C/[C@@]1(C)SC(=O)C(C)=C1O [THIOLACTOMYCIN]
Activity (Escherichia coli K-12): Active
MIC (Staphylococcus aureus [1]): 256 µg/mL (≈ 1220 µM)
MIC (Klebsiella pneumoniae): 256 µg/mL (≈ 1220 µM)
MIC (Staphylococcus aureus [2]): 128 µg/mL (≈ 609 µM)
Kd [3]: 121 µM
MIC (Escherichia coli): 128 µg/mL (≈ 609 µM)
MIC (Enterococcus faecalis): 256 µg/mL (≈ 1220 µM)

CC1(O)N(CCC(N)=O)C(=O)OC12CCCCC2 (stereo unspecified)
Activity (Escherichia coli K-12): inactive

Cn1ncc2c(Nc3ccccc3)nc(NCCCO)nc21
Activity (Escherichia coli K-12): Active
Kd [3]: 141 µM

C=CCn1c(SCC(=O)Nc2ccc(S(N)(=O)=O)cc2)nnc1-c1ccc(Cl)cc1
Activity (Escherichia coli K-12): inactive

CC(C)(CC(=O)O)CC(=O)NCCN1CCNC1=O
Activity (Escherichia coli K-12): Active
Kd [3]: > 1000 µM

CCCc1cc(=O)oc2cc(OC(=O)c3ccccc3Cl)ccc12
Activity (Escherichia coli K-12): inactive

C=CCSC1Nn2c(nnc(C)c2=O)S1 (stereo unspecified)
Activity (Escherichia coli K-12): Active
Kd [3]: > 1000 µM

Cc1c(C(=O)O)cc(C(C)(C)C)n1CCSCc1c(F)cccc1Cl
Activity (Escherichia coli K-12): inactive

O=C(O)c1cc(NC(=O)c2ccccc2[N+](=O)[O-])ccc1O
Activity (Escherichia coli K-12): Active
Kd [3]: > 1000 µM

Cc1cc(C)nc(NS(=O)(=O)c2ccc(NC(=O)c3sc4ccccc4c3Cl)cc2)n1
Activity (Escherichia coli K-12): inactive

C/C(=N\Nc1nc(C)cs1)c1cccc(O)c1
Activity (Escherichia coli K-12): Active
MIC (Staphylococcus aureus [1]): 256 µg/mL (≈ 1040 µM)
MIC (Klebsiella pneumoniae): > 1020 µg/mL
MIC (Staphylococcus aureus [2]): 256 µg/mL (≈ 1040 µM)
Kd [3]: > 1000 µM
MIC (Escherichia coli): > 1020 µg/mL
MIC (Enterococcus faecalis): 256 µg/mL (≈ 1040 µM)

CC1CN(c2ccc(O)c(C(=O)O)c2)C(=S)NC1=O (stereo unspecified)
Activity (Escherichia coli K-12): Active
Kd [3]: > 1000 µM

COc1ccc(NC(=O)CC(CC(=O)O)c2ccccc2)cc1 (stereo unspecified)
Activity (Escherichia coli K-12): inactive

COc1ccc2c(c1OC)C(=O)OC2C(C)C(=O)c1ccc(O)c(O)c1 (stereo unspecified)
Activity (Escherichia coli K-12): Active
MIC (Staphylococcus aureus [1]): > 1020 µg/mL
MIC (Klebsiella pneumoniae): > 1020 µg/mL
MIC (Staphylococcus aureus [2]): > 1020 µg/mL
Kd [3]: 1.22 µM
MIC (Escherichia coli): > 1020 µg/mL
MIC (Enterococcus faecalis): > 1020 µg/mL

NS(=O)(=O)c1cccc(NC(=O)Nc2cccc(S(N)(=O)=O)c2)c1
Activity (Escherichia coli K-12): inactive
